This is an account of results in patent US9345755B2, “Composition and methods for treating melanoma” (University of Virginia Patent Foundation, priority 2012, dated 2016).

Data set [1] can be described thus: physchem.
Experimental: Vaccines are prepared by solubilization of each peptide in aqueous solutions, then sterile filtration, mixing, and vialing at 600 mcg per vial.
It is then sterile-filtered. […] It is then sterile-filtered.
The solubilization regimen was difficult to establish for the 8 long peptides.
These 3 sterile solutions will be combined and will be brought up to a concentration of 600 mcg/ml of each peptide using sterile water, lactated ringer's solution or normal saline solution. The pH of the mixture will be about 8-8.50, for a concentration of 600 micrograms per ml of each peptide.
For data set [2], the system named is high-risk ovarian cancer patients. The note with it: human, in vivo; cited from earlier work.
Data set [3] in a line: Stability of peptide against alkaline hydrolysis at pH 12. The format is physicochemical. The note with it: pH 12, NaOH. The text has this:
It will be sterile-filtered.

Entries after “also recorded” stand apart in the source; their conditions may differ. Ends that are not written are not given here.

The solubility is the concentration that dissolves in the medium under given conditions. Read a low solubility as little dissolved substance.

In turn, “LLHLAVIGALLAVGATKVPRNQDWLGVSRQL [Peptide 6]” showed a solubility in data set [1] of 10 mg/mL.
In the case of “NY-ESO-179-108: long peptide, residues 79-108 of cancer-testis antigen NY-ESO-1 (GARGPESRLLEFYLAMPFATPMEAELARRS; UniProt P78358 79-108, looked up, fragment)”, the “CD4 T cell responses after vaccination” value in data set [2] was “induces CD4 T cell responses”.
As to “SMHNALHIYMDGTMSQVQGSANDPIFLLHH [Peptide 3]”, the “stability (hydrolysis/degradation) of peptide” value in data set [3] was “stable at this pH and is not hydrolyzed or degraded; also recorded: hydrolysis is not an issue and the peptide is intact”.
With “VPLAHSSSAFTIMDQVPFSVSVSQLRALDG [Peptide 4]”, the concentration in solution in data set [1] (solubility) came to 20 mg/mL.
